pEC50: −log10 of the molar value. Like-named read-outs stand apart in the source and are kept apart here.
Test system: Human PBMC
Test: Cytokine production upon human PBMC stimulation (ORN complexed to DOTAP, 16 h, ELISA)
Assay type: cell-based
Settings: human PBMC, ORN complexed to DOTAP, 16 h; for pEC50: full titration 2 μM to 0.9 nM; for IFN-alpha max activity / TNF-alpha max activity: mean max activity at 0.6 μM, 3-6 blood donors
Experimental: Human peripheral blood mononuclear cells (PBMCs) were isolated from healthy donors, plated, and stimulated in vitro with various test and control immunostimulatory agents for 16 hours. After 16 hours, the supernatants were collected and then analyzed by ELISA assay. N-U-R1-R2,-Containing Oligoribonucleotides were tested complexed to DOTAP and with full titration curves (7 concentrations), starting from 2 μM ORN complexed to 25 μg/ml DOTAP and with 1/3 dilution steps. Also included were certain negative controls, including medium alone and DOTAP (25 μg/ml culture well; “Liposomes”) alone. The control immunostimulatory agents included the imidazoquinoline R-848 (2 μM with 1/3 dilution steps and 7 concentrations) the reported ligand for TLR7, ORN having TLR8 motifs such as AU and AUU sequences (SEQ ID NO:13-SEQ ID NO:15) ORN having TLR7/8 motifs such as CU, GU and GUU sequences (SEQ ID NO:19-SEQ ID NO:23).
Human PBMC were stimulated with ORN complexed to DOTAP. After 16 hours supernatants were harvested and TNF-alpha and IFN-alpha levels were measured. Mean/Max activities at 0.6 μM of 3-6 blood donors and two individual experiments were determined. […] TLR8 and TLR7/8 ORN are divided by a red line.
Human PBMC were stimulated with ORN complexed to DOTAP. After 16 hours supernatants were harvested and IFN-alpha levels were measured. Mean/Max activities at 0.6 μM and EC50 of full titration curves (range: 2 μM to 0.9 nM) of 3-6 blood donors and two individual experiments were determined. […] Low EC50/high Max activity represents TLR7/8 ORN (FIG. 5a) whereas high EC50 and low Max activity represents TLR8 ORN (FIG. 5b).
The ORN sequences listed in Table 1 were tested for IFN-alpha and TNF-alpha production upon human PBMC stimulation. Human PBMC were stimulated for 16 h with the indicated ORN, and supernatants were harvested and cytokine production measured by ELISA. Table 2 summarizes the min/max activity and EC50 of ORN for IFN-alpha and TNF-alpha production.

| Substance | pEC50 (read-out: IFN-alpha EC50) | pEC50 (read-out: TNF-alpha EC50) | IFN-alpha max activity [pg/mL] | TNF-alpha max activity [pg/mL] |
| --- | --- | --- | --- | --- |
| C*C*G*A*G*C*C*G*A*U*U*U*T*A*C*C (CCGAGCCGAUUUNACC; Oligoribonucleotide, chemistry of T and the '*' linkage is not given here, further chemistry not given here) [SEQ ID NO: 72] | 7.12 | 6.84 | 1896 | 38811 |
| C*C*G*A*G*C*C*G*C*A*A*U*U*C*C*C [SEQ ID NO: 50] (CCGAGCCGCAAUUCCC; listed as RNA, chemistry not fully specified) | 6.25 | 6.25 | 2614 | 11141 |
| C*C*G*A*G*C*C*G*C*A*A*U*U*C*C*C [SEQ ID NO: 52] (CCGAGCCGCAAUUCCC; listed as RNA, chemistry not fully specified) | 6.29 | 6.05 | 2263 | 11920 |
| C*C*G*A*G*C*C*G*C*A*U*A*A*C*C*C (CCGAGCCGCAUAACCC; listed as RNA, chemistry not fully specified) [SEQ ID NO: 41] | < 5.70 | 6.05 | 97.97 | 10756 |
| C*C*G*A*G*C*C*G*C*A*U*A*C*C*C*C (CCGAGCCGCAUACCCC; listed as RNA, chemistry not fully specified) [SEQ ID NO: 45] | 5.77 | 6.12 | 98.44 | 10491 |
| C*C*G*A*G*C*C*G*C*A*U*A*U*C*C*C (CCGAGCCGCAUAUCCC; listed as RNA, chemistry not fully specified) [SEQ ID NO: 36] | ≤ 5.82 | 6.07 | 110.4 | 18063 |
| C*C*G*A*G*C*C*G*C*A*U*C*C*C*C*C (CCGAGCCGCAUCCCCC; listed as RNA, chemistry not fully specified) [SEQ ID NO: 46] | < 5.70 | 6.12 | 74.76 | 7096 |
| C*C*G*A*G*C*C*G*C*A*U*U*A*C*C*C (CCGAGCCGCAUUACCC; listed as RNA, chemistry not fully specified) [SEQ ID NO: 48] | 6.12 | 6.10 | 543.4 | 9988 |
| C*C*G*A*G*C*C*G*C*A*U*U*C*C*C*C (CCGAGCCGCAUUCCCC; listed as RNA, chemistry not fully specified) [SEQ ID NO: 54] | 6.11 | 6.47 | 1233 | 12595 |
| C*C*G*A*G*C*C*G*C*C*G*C*C*C*C*C (CCGAGCCGCCGCCCCC; listed as RNA, chemistry not fully specified) [SEQ ID NO: 35] | < 5.70 | – | 70.6 | 2854 |
| C*C*G*A*G*C*C*G*C*C*U*A*A*C*C*C (CCGAGCCGCCUAACCC; listed as RNA, chemistry not fully specified) [SEQ ID NO: 43] | < 5.70 | 6.02 | 144.3 | 10261 |
| C*C*G*A*G*C*C*G*C*C*U*A*C*C*C*C (CCGAGCCGCCUACCCC; listed as RNA, chemistry not fully specified) [SEQ ID NO: 47] | ≤ 5.82 | 6.25 | 271.9 | 14265 |
| C*C*G*A*G*C*C*G*C*U*A*U*A*C*C*C (CCGAGCCGCUAUACCC; listed as RNA, chemistry not fully specified) [SEQ ID NO: 37] | ≤ 5.82 | 6.12 | 240.5 | 22800 |
| C*C*G*A*G*C*C*G*C*U*A*U*C*C*C*C (CCGAGCCGCUAUCCCC; listed as RNA, chemistry not fully specified) [SEQ ID NO: 55] | < 5.70 | 6.47 | 224.4 | 15154 |
